Experimental data reported in patent US20260285850A1, “SUBSTITUTED OXAZOLIDINONES AND IMIDAZOLINONES AS HERBICIDES” (FMC CORPORATION, priority 2023, published 2026).

Experiments:
Format in all cases: in vivo
[1] = system: green foxtail (Setaria viridis); assay: Test A preemergence soil spray, visual injury rating 0-100; conditions: 10 days
In short: (§1)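 Grow plants in loam soil blended with sand. Apply formulated compound (non-phytotoxic solvent, surfactant) as a directed soil spray before emergence, or to plants at the one- to two-leaf stage after emergence. Hold in greenhouse 10 days, then rate injury visually versus untreated controls on a 0-100 scale.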

[2] = system: ryegrass, Italian (italian ryegrass, Lolium multiflorum); assay: as above; conditions: 10 days
In short: as §1

[3] = system: blackgrass (Alopecurus myosuroides); assay: as above; conditions: 10 days
In short: as §1

[4] = system: ragweed (common ragweed, Ambrosia artemisiifolia); assay: as above; conditions: 10 days
In short: as §1

[5] = system: barnyardgrass (Echinochloa crus-galli); assay: as above; conditions: 10 days
In short: as §1

[6] = system: corn (Zea mays); assay: as above; conditions: 10 days
In short: as §1

[7] = system: oat, wild (wild oat, Avena fatua); assay: as above; conditions: 10 days
In short: as §1

[8] = system: palmer (palmer amaranth, palmer pigweed, Amaranthus palmeri); assay: as above; conditions: 10 days
In short: as §1

[9] = system: wheat (Triticum aestivum); assay: as above; conditions: 10 days
In short: as §1

[10] = system: soybean (Glycine max); assay: as above; conditions: 10 days
In short: as §1

[11] = system: kochia (Bassia scoparia); assay: as above; conditions: 10 days
In short: as §1

[12] = system: green foxtail (Setaria viridis); assay: Test A postemergence application, visual injury rating 0-100
In short: as §1

[13] = system: ryegrass, Italian (italian ryegrass, Lolium multiflorum); assay: as above
In short: as §1

[14] = system: blackgrass (Alopecurus myosuroides); assay: as above
In short: as §1

[15] = system: horseweed (Erigeron canadensis); assay: as above
In short: as §1

[16] = system: ragweed (common ragweed, Ambrosia artemisiifolia); assay: as above
In short: as §1

[17] = system: barnyardgrass (Echinochloa crus-galli); assay: as above
In short: as §1

[18] = system: corn (Zea mays); assay: as above
In short: as §1

[19] = system: galium (catchweed bedstraw, Galium aparine); assay: as above
In short: as §1

[20] = system: oat, wild (wild oat, Avena fatua); assay: as above
In short: as §1

[21] = system: palmer (palmer amaranth, palmer pigweed, Amaranthus palmeri); assay: as above
In short: as §1

[22] = system: wheat (Triticum aestivum); assay: as above
In short: as §1

[23] = system: soybean (Glycine max); assay: as above
In short: as §1

[24] = system: kochia (Bassia scoparia); assay: as above
In short: as §1

[25] = system: ducksalad (Heteranthera limosa); assay: Test B flooded paddy test, visual plant response rating 0-100; conditions: 250 g ai/ha, Flood, applied to paddy water, evaluated after 13 days
In short: (§2)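 Visual evaluation after 13 days. Water-applied treatment, 3 cm flood depth held constant, plants at 2-leaf stage at treatment.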

[26] = system: sedge, umbrella (small-flower umbrella sedge, Cyperus difformis); assay: as above; conditions: 250 g ai/ha, Flood, applied to paddy water, evaluated after 13 days
In short: as §2

[27] = system: rice (Oryza sativa); assay: as above; conditions: 250 g ai/ha, Flood, applied to paddy water, evaluated after 13 days
In short: as §2

[28] = system: barnyardgrass (Echinochloa crusgalli); assay: as above; conditions: 250 g ai/ha, Flood, applied to paddy water, evaluated after 13 days
In short: as §2

[29] = 62 g ai/ha, 0 = no effect, 100 = complete control
[30] = 62 g ai/ha, postemergence, 10 days, 0 = no effect, 100 = complete control
[31] = Postemergence, 16 g ai/ha, greenhouse 10 days, 0 no effect, 100 complete control

In the case of `CC1(C(=O)NC2CC(C(=O)O)C2)CN(c2cc(F)cc(F)c2)C(=O)O1` (stereo not shown) [Compound 119], the “Foxtail, Green plant response rating” value ([1]; 16 g ai/ha, 0 to 100 scale) was 20, the “Foxtail, Green plant response rating (0-100)” value [1, 29] was 90 and the “Ryegrass, Italian plant response rating” value ([2]; 16 g ai/ha, 0 to 100 scale) was 30. The “Ryegrass, Italian plant response rating (0-100)” value [2, 29] was 80, the “Blackgrass plant response rating” value ([3]; 16 g ai/ha, 0 to 100 scale) was 40 and the “Blackgrass plant response rating (0-100)” value [3, 29] was 80. For the same compound, the “Ragweed plant response rating” value ([4]; 16 g ai/ha, 0 to 100 scale) was 0, the “Ragweed plant response rating (0-100)” value [4, 29] was 0 and the “Barnyardgrass plant response rating” value ([5]; 16 g ai/ha, 0 to 100 scale) was 0. For the same compound, the “Barnyardgrass plant response rating (0-100)” value [5, 29] was 80, the “Corn plant response rating” value ([6]; 16 g ai/ha, 0 to 100 scale) was 20 and the “Corn plant response rating (0-100)” value [6, 29] was 70. The “Oat, Wild plant response rating” value ([7]; 16 g ai/ha, 0 to 100 scale) was 90, the “Oat, Wild plant response rating (0-100)” value [7, 29] was 90 and the “Pigweed, Palmer plant response rating” value ([8]; 16 g ai/ha, 0 to 100 scale) was 10. The “Pigweed, Palmer plant response rating (0-100)” value [8, 29] was 10, the “Wheat plant response rating” value ([9]; 16 g ai/ha, 0 to 100 scale) was 10 and the “Wheat plant response rating (0-100)” value [9, 29] was 60. For the same compound, the “Soybean plant response rating” value ([10]; 16 g ai/ha, 0 to 100 scale) was 0, the “Soybean plant response rating (0-100)” value [10, 29] was 20 and the “Kochia plant response rating” value ([11]; 16 g ai/ha, 0 to 100 scale) was 0. The “Kochia plant response rating (0-100)” value [11, 29] was 80, the “Foxtail, Green plant response rating (0-100)” value [12, 30] was 90 and the “Foxtail, Green plant response rating (0 to 100 scale)” value [12, 31] was 70. For the same compound, the “Ryegrass, Italian plant response rating (0-100)” value [13, 30] was 60, the “Ryegrass, Italian plant response rating (0 to 100 scale)” value [13, 31] was 0 and the “Blackgrass plant response rating (0-100)” value [14, 30] was 100. The “Blackgrass plant response rating (0 to 100 scale)” value [14, 31] was 80, the “Horseweed plant response rating (0-100)” value [15, 30] was 0 and the “Horseweed plant response rating (0 to 100 scale)” value [15, 31] was 0. The “Ragweed plant response rating (0-100)” value [16, 30] was 20, the “Ragweed plant response rating (0 to 100 scale)” value [16, 31] was 0 and the “Barnyardgrass plant response rating (0-100)” value [17, 30] was 100. The “Barnyardgrass plant response rating (0 to 100 scale)” value [17, 31] was 70, the “Corn plant response rating (0-100)” value [18, 30] was 100 and the “Corn plant response rating (0 to 100 scale)” value [18, 31] was 100. The “Galium plant response rating (0-100)” value [19, 30] was 60, the “Galium plant response rating (0 to 100 scale)” value [19, 31] was 20 and the “Oat, Wild plant response rating (0-100)” value [20, 30] was 90. For the same compound, the “Oat, Wild plant response rating (0 to 100 scale)” value [20, 31] was 40, the “Pigweed, Palmer plant response rating (0-100)” value [21, 30] was 50 and the “Pigweed, Palmer plant response rating (0 to 100 scale)” value [21, 31] was 20. For the same compound, the “Wheat plant response rating (0-100)” value [22, 30] was 90, the “Wheat plant response rating (0 to 100 scale)” value [22, 31] was 80 and the “Soybean plant response rating (0-100)” value [23, 30] was 80. For the same compound, the “Soybean plant response rating (0 to 100 scale)” value [23, 31] was 50, the “Kochia plant response rating (0-100)” value [24, 30] was 80 and the “Kochia plant response rating (0 to 100 scale)” value [24, 31] was 10. For the same compound, the “Plant response rating, Ducksalad (0 to 100 scale, 0 is no effect and 100 is complete control)” value [25] was 0, the “Plant response rating, Sedge, Umbrella (0 to 100 scale, 0 is no effect and 100 is complete control)” value [26] was 0 and the “Plant response rating, Rice (0 to 100 scale, 0 is no effect and 100 is complete control)” value [27] was 0. For the same compound, the “Plant response rating, Barnyardgrass (0 to 100 scale, 0 is no effect and 100 is complete control)” value [28] was 0.
